Columns and labels:
Assay type in all cases: in vivo
Kochia (Kochia scoparia) [1] = experiment: Test A preemergence; conditions: Preemergence; for Plant response rating, Kochia: 125 g ai/ha, visual injury after approximately 10 d, 0 to 100 scale where 0 is no effect and 100 is complete control; for Kochia plant response rating (0 to 100 scale, 0 is no effect, 100 is complete control): 500 g ai/ha, visual injury approx. 10 d
Outline: (§1)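 Seeds sprayed preemergence with a directed soil spray, or plants at 2 to 10 cm height and one- to two-leaf stage sprayed postemergence, with test chemicals in a non-phytotoxic solvent mixture containing surfactant, in loam soil–sand blend. Injury rated visually against untreated controls after about 10 d in greenhouse, 0 (no effect) to 100 (complete control).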

[2] = tested on: barnyardgrass (Echinochloa crus-galli); experiment: Test A preemergence; conditions: Preemergence; for Plant response rating, Barnyardgrass: 125 g ai/ha, visual injury after approximately 10 d, 0 to 100 scale where 0 is no effect and 100 is complete control; for Barnyardgrass plant response rating (0 to 100 scale, 0 is no effect, 100 is complete control): 500 g ai/ha, visual injury approx. 10 d
Outline: as §1

[3] = tested on: giant foxtail (Setaria faberii); experiment: Test A preemergence; conditions: Preemergence; for Plant response rating, Foxtail, Giant: 125 g ai/ha, visual injury after approximately 10 d, 0 to 100 scale where 0 is no effect and 100 is complete control; for Foxtail, Giant plant response rating (0 to 100 scale, 0 is no effect, 100 is complete control): 500 g ai/ha, visual injury approx. 10 d
Outline: as §1

[4] = tested on: pigweed (Amaranthus retroflexus); experiment: Test A preemergence; conditions: Preemergence; for Plant response rating, Pigweed: 125 g ai/ha, visual injury after approximately 10 d, 0 to 100 scale where 0 is no effect and 100 is complete control; for Pigweed plant response rating (0 to 100 scale, 0 is no effect, 100 is complete control): 500 g ai/ha, visual injury approx. 10 d
[5] = tested on: ragweed (common ragweed, Ambrosia elatior); experiment: Test A preemergence; conditions: Preemergence; for Plant response rating, Ragweed: 125 g ai/ha, visual injury after approximately 10 d, 0 to 100 scale where 0 is no effect and 100 is complete control; for Ragweed plant response rating (0 to 100 scale, 0 is no effect, 100 is complete control): 500 g ai/ha, visual injury approx. 10 d
Outline: as §1

[6] = tested on: ryegrass, Italian (Italian ryegrass, Lolium multiflorum); experiment: Test A preemergence; conditions: Preemergence; for Plant response rating, Ryegrass, Italian: 125 g ai/ha, visual injury after approximately 10 d, 0 to 100 scale where 0 is no effect and 100 is complete control; for Ryegrass, Italian plant response rating (0 to 100 scale, 0 is no effect, 100 is complete control): 500 g ai/ha, visual injury approx. 10 d
Outline: as §1

[7] = tested on: Galium (catchweed bedstraw, Galium aparine); experiment: Test A postemergence; conditions: for Galium plant response rating: visual injury rating on 0 to 100 scale (0 no effect, 100 complete control), approx. 10 d
Outline: as §1

Kochia (Kochia scoparia) [8] = experiment: Test A postemergence; conditions: for Kochia plant response rating: visual injury rating on 0 to 100 scale (0 no effect, 100 complete control), approx. 10 d
Outline: as §1

[9] = tested on: barnyardgrass (Echinochloa crus-galli); experiment: Test A postemergence; conditions: for Barnyardgrass plant response rating: visual injury rating on 0 to 100 scale (0 no effect, 100 complete control), approx. 10 d
Outline: as §1

[10] = tested on: blackgrass (Alopecurus myosuroides); experiment: Test A postemergence; conditions: for Blackgrass plant response rating: visual injury rating on 0 to 100 scale (0 no effect, 100 complete control), approx. 10 d
Outline: as §1

corn (Zea mays) = experiment: Test A postemergence; conditions: for Corn plant response rating: visual injury rating on 0 to 100 scale (0 no effect, 100 complete control), approx. 10 d
Outline: as §1

[11] = tested on: giant foxtail (Setaria faberii); experiment: Test A postemergence; conditions: for Foxtail, Giant plant response rating: visual injury rating on 0 to 100 scale (0 no effect, 100 complete control), approx. 10 d
Outline: as §1

[12] = tested on: pigweed (Amaranthus retroflexus); experiment: Test A postemergence; conditions: for Pigweed plant response rating: visual injury rating on 0 to 100 scale (0 no effect, 100 complete control), approx. 10 d
Outline: as §1

[13] = tested on: ragweed (common ragweed, Ambrosia elatior); experiment: Test A postemergence; conditions: for Ragweed plant response rating: visual injury rating on 0 to 100 scale (0 no effect, 100 complete control), approx. 10 d
Outline: as §1

[14] = tested on: ryegrass, Italian (Italian ryegrass, Lolium multiflorum); experiment: Test A postemergence; conditions: for Ryegrass, Italian plant response rating: visual injury rating on 0 to 100 scale (0 no effect, 100 complete control), approx. 10 d
Outline: as §1

[15] = tested on: wheat (Triticum aestivum); experiment: Test A postemergence; conditions: for Wheat plant response rating: visual injury rating on 0 to 100 scale (0 no effect, 100 complete control), approx. 10 d
Outline: as §1

[16] = tested on: barnyardgrass (Echinochloa crus-galli); experiment: Test B flooded paddy test; conditions: Flood, 250 g ai/ha; 0 to 100 scale where 0 is no effect and 100 is complete control; 13 to 15 d
Outline: (§2)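 2-leaf plants; pots flooded 3 cm over soil; cpd added to paddy water; depth held; greenhouse 13–15 d; visual rating vs controls, 0 = no effect, 100 = complete control.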

[17] = tested on: ducksalad (Heteranthera limosa); experiment: Test B flooded paddy test; conditions: Flood, 250 g ai/ha; 0 to 100 scale where 0 is no effect and 100 is complete control; 13 to 15 d
Outline: as §2

rice (Oryra sativa) = experiment: Test B flooded paddy test; conditions: Flood, 250 g ai/ha; 0 to 100 scale where 0 is no effect and 100 is complete control; 13 to 15 d
Outline: as §2

[18] = tested on: sedge, umbrella (small-flower umbrella sedge, Cyperus difformis); experiment: Test B flooded paddy test; conditions: Flood, 250 g ai/ha; 0 to 100 scale where 0 is no effect and 100 is complete control; 13 to 15 d
Outline: as §2

[19] = Postemergence, 500 g ai/ha, 0 to 100 scale where 0 is no effect and 100 is complete control
[20] = 125 g ai/ha, postemergence, visual rating after approx. 10 d, 0 to 100 scale (0 no effect, 100 complete control)

Compound | Plant response rating, Kochia (Kochia (Kochia scoparia) [1]) | Kochia plant response rating (0 to 100 scale, 0 is no effect, 100 is complete control) (Kochia (Kochia scoparia) [1]) | Plant response rating, Barnyardgrass [2] | Barnyardgrass plant response rating (0 to 100 scale, 0 is no effect, 100 is complete control) [2] | Plant response rating, Foxtail, Giant [3] | Foxtail, Giant plant response rating (0 to 100 scale, 0 is no effect, 100 is complete control) [3] | Plant response rating, Pigweed [4] | Plant response rating, Ragweed [5] | Ragweed plant response rating (0 to 100 scale, 0 is no effect, 100 is complete control) [5] | Plant response rating, Ryegrass, Italian [6] | Ryegrass, Italian plant response rating (0 to 100 scale, 0 is no effect, 100 is complete control) [6] | Plant response rating, Galium [7, 19] | Plant response rating, Kochia (Kochia (Kochia scoparia) [8]; [19]) | Plant response rating, Barnyardgrass [9, 19] | Plant response rating, Blackgrass [10, 19] | Plant response rating, Corn (corn (Zea mays); [19]) | Plant response rating, Foxtail, Giant [11, 19] | Plant response rating, Pigweed [12, 19] | Plant response rating, Ragweed [13, 19] | Plant response rating, Ryegrass, Italian [14, 19] | other results
COCc1cccc(C2CNC(=O)C2C(=O)Nc2cccc(F)c2F)c1 (centres unmarked) [Compound 497] | 20 | 50 | 90 | 90 | 90 | 90 | 30 | 0 | 0 | 0 | 30 | 50 | 30 | 80 | 30 | 40 | 50 | 0 | 0 | 20 | Pigweed plant response rating (0 to 100 scale, 0 is no effect, 100 is complete control) [4]: 20; Galium plant response rating ([7]; 125 g ai/ha, postemergence): 0; Kochia plant response rating (Kochia (Kochia scoparia) [8]; 125 g ai/ha, postemergence): 30; Barnyardgrass plant response rating ([9]; 125 g ai/ha, postemergence): 60; Blackgrass plant response rating ([10]; 125 g ai/ha, postemergence): 30; Corn plant response rating (corn (Zea mays); 125 g ai/ha, postemergence): 0; Foxtail, Giant plant response rating ([11]; 125 g ai/ha, postemergence): 20; Pigweed plant response rating ([12]; 125 g ai/ha, postemergence): 0; Ragweed plant response rating ([13]; 125 g ai/ha, postemergence): 0; Ryegrass, Italian plant response rating ([14]; 125 g ai/ha, postemergence): 0; Wheat plant response rating ([15]; 125 g ai/ha, postemergence): 0; Plant response rating, Wheat [15, 19]: 40; Plant response rating, Barnyardgrass [16]: 70; Plant response rating, Ducksalad [17]: 90; Plant response rating, Rice (rice (Oryra sativa)): 20; Plant response rating, Sedge, Umbrella [18]: 0
COc1ccc(N2CC(c3cccc(C(F)(F)F)c3)C(C(=O)Nc3ccccc3F)C2=O)cc1 (centres unmarked) [Compound 505] | 0 | 0 | 0 | 0 | 0 | 0 | 0 | 0 | 0 | 0 | 0 | 0 | 0 | 0 | 0 | 0 | 0 | 10 | 0 | 0 | Pigweed plant response rating (0 to 100 scale, 0 is no effect, 100 is complete control) [4]: 0; Galium plant response rating ([7]; 125 g ai/ha, postemergence): 0; Kochia plant response rating (Kochia (Kochia scoparia) [8]; 125 g ai/ha, postemergence): 0; Barnyardgrass plant response rating ([9]; 125 g ai/ha, postemergence): 0; Blackgrass plant response rating ([10]; 125 g ai/ha, postemergence): 0; Corn plant response rating (corn (Zea mays); 125 g ai/ha, postemergence): 0; Foxtail, Giant plant response rating ([11]; 125 g ai/ha, postemergence): 0; Pigweed plant response rating ([12]; 125 g ai/ha, postemergence): 0; Ragweed plant response rating ([13]; 125 g ai/ha, postemergence): 0; Ryegrass, Italian plant response rating ([14]; 125 g ai/ha, postemergence): 0; Wheat plant response rating ([15]; 125 g ai/ha, postemergence): 0; Plant response rating, Wheat [15, 19]: 0; Plant response rating, Barnyardgrass [16]: 0; Plant response rating, Ducksalad [17]: 0; Plant response rating, Rice (rice (Oryra sativa)): 0; Plant response rating, Sedge, Umbrella [18]: 0
CN1CC(c2cccc(Br)c2)C(C(=O)Nc2cccc(F)c2F)C1=O (centres unmarked) [Compound 520] | 50 | 70 | 90 | 90 | 90 | 90 | 30 | 0 | 50 | 30 | 50 | 60 | 70 | 90 | 70 | 70 | 80 | 50 | 30 | 80 | Pigweed plant response rating (0 to 100 scale, 0 is no effect, 100 is complete control) [4]: 80; Galium plant response rating ([7]; 125 g ai/ha, postemergence): 60; Kochia plant response rating (Kochia (Kochia scoparia) [8]; 125 g ai/ha, postemergence): 60; Barnyardgrass plant response rating ([9]; 125 g ai/ha, postemergence): 90; Blackgrass plant response rating ([10]; 125 g ai/ha, postemergence): 70; Corn plant response rating (corn (Zea mays); 125 g ai/ha, postemergence): 60; Foxtail, Giant plant response rating ([11]; 125 g ai/ha, postemergence): 80; Pigweed plant response rating ([12]; 125 g ai/ha, postemergence): 40; Ragweed plant response rating ([13]; 125 g ai/ha, postemergence): 30; Ryegrass, Italian plant response rating ([14]; 125 g ai/ha, postemergence): 40; Wheat plant response rating ([15]; 125 g ai/ha, postemergence): 50; Plant response rating, Wheat [15, 19]: 70; Plant response rating, Barnyardgrass [16]: 65; Plant response rating, Ducksalad [17]: 100; Plant response rating, Rice (rice (Oryra sativa)): 0; Plant response rating, Sedge, Umbrella [18]: 0
O=C1NCC(c2cc(C(F)(F)F)cc(C(F)(F)F)c2)C1C(=O)Nc1ccccc1F (centres unmarked) [Compound 587] | 0 | 0 | 90 | 90 | 90 | 90 | 0 | 0 | 0 | 20 | 60 | 0 | 20 | 90 | 60 | 70 | 90 | 0 | 0 | 30 | Plant response rating, Galium [7, 20]: 0; Plant response rating, Kochia (Kochia (Kochia scoparia) [8]; [20]): 0; Plant response rating, Barnyardgrass [9, 20]: 80; Plant response rating, Blackgrass [10, 20]: 20; Plant response rating, Corn (corn (Zea mays); [20]): 40; Plant response rating, Foxtail, Giant [11, 20]: 80; Plant response rating, Pigweed [12, 20]: 0; Plant response rating, Ragweed [13, 20]: 0; Plant response rating, Ryegrass, Italian [14, 20]: 0; Plant response rating, Wheat [15, 20]: 40; Plant response rating, Wheat [15, 19]: 60; Plant response rating, Barnyardgrass [16]: 55; Plant response rating, Ducksalad [17]: 75; Plant response rating, Rice (rice (Oryra sativa)): 20; Plant response rating, Sedge, Umbrella [18]: 0

Source: patent publication US12077503B2, “Substituted cyclic amides and their use as herbicides” (FMC CORPORATION, priority 2015, dated 2024)
